Source: patent US20050070510A1, “Substituted tetracycline compounds as synergistic antifungal agents” (Paratek Pharmaceuticals, Inc., priority 2001, published 2005)

test system: COS-1 cells; assay: In vitro mammalian cytotoxicity assay (Resazurin)

| Structure (SMILES) | In Vitro Cytotoxicity |
| --- | --- |
| CN(C)c1cc(CCC2CCCC2)c(O)c2c1C[C@@]1(N)C[C@@]3(N)[C@H](N(C)C)C(O)=C(C(N)=O)C(=O)[C@@]3(C#N)C(O)=C1C2=O [KM] | ** (toxicities less than 25 μg/mL are represented by **) |
| CN(C)c1cc(C#CCc2ccccc2)c(O)c2c1C[C@@]1(N)C[C@@]3(N)[C@H](N(C)C)C(O)=C(C(N)=O)C(=O)[C@@]3(C#N)C(O)=C1C2=O [KL] | ** (toxicities less than 25 μg/mL are represented by **) |
| COc1ccc(-c2ccc(O)c3c2C[C@@]2(N)C[C@@]4(N)[C@H](N(C)C)C(O)=C(C(N)=O)C(=O)[C@@]4(C#N)C(O)=C2C3=O)cc1 [QF] | ** (toxicities less than 25 μg/mL are represented by **) |
| COC(=O)C(CO)NC(=O)c1cccc(-c2ccc(O)c3c2C[C@@]2(N)C[C@@]4(N)C(N(C)C)C(O)=C(C(N)=O)C(=O)[C@@]4(C#N)C(O)=C2C3=O)c1 (stereo partly drawn) [QT] | ** (toxicities less than 25 μg/mL are represented by **) |
| CN(C)[C@@H]1C(O)=C(C(N)=O)C(=O)[C@@]2(C#N)C(O)=C3C(=O)c4c(O)ccc(-c5ccc(F)cc5)c4[C@H](N)[C@@]3(N)[C@H](O)[C@@]12N [CQ] | ** (toxicities less than 25 μg/mL are represented by **) |
| CCC(CC)CCc1ccc(O)c2c1C[C@@]1(N)C[C@@]3(N)[C@H](N(C)C)C(O)=C(C(N)=O)C(=O)[C@@]3(C#N)C(O)=C1C2=O [GX] | ** (toxicities less than 25 μg/mL are represented by **) |
| CN(C)[C@@H]1C(O)=C(C(N)=O)C(=O)[C@@]2(C#N)C(O)=C3C(=O)c4c(ccc(Br)c4O)[C@H](N)[C@@]3(N)[C@H](O)[C@@]12N [CO] | * (toxicities greater than >25 μg/ml are represented by *) |
| CC(C)COC(=O)Nc1cc(N(C)C)c2c(c1O)C(=O)C1=C(O)[C@]3(C#N)C(=O)C(C(N)=O)=C(O)[C@@H](N(C)C)[C@]3(N)C[C@]1(N)C2 [KQ] | ** (toxicities less than 25 μg/mL are represented by **) |
| CN(C)[C@@H]1C(O)=C(C(N)=O)C(=O)[C@@]2(C#N)C(O)=C3C(=O)c4c(O)ccc(-c5ccc(Cl)cc5)c4C[C@@]3(N)C[C@@]12N [DM] | ** (toxicities less than 25 μg/mL are represented by **) |
| CN(C)[C@@H]1C(O)=C(C(N)=O)C(=O)[C@@]2(C#N)C(O)=C3C(=O)c4c(ccc(-c5ccc6c(c5)OCO6)c4O)[C@H](N)[C@@]3(N)[C@H](O)[C@@]12N [PV] | ** (toxicities less than 25 μg/mL are represented by **) |
| CN(C)c1cc(NCC2CCCCC2)c(O)c2c1C[C@@]1(N)C[C@@]3(N)[C@H](N(C)C)C(O)=C(C(N)=O)C(=O)[C@@]3(C#N)C(O)=C1C2=O [MR] | ** (toxicities less than 25 μg/mL are represented by **) |
| CN(C)[C@@H]1C(O)=C(C(N)=O)C(=O)[C@@]2(C#N)C(O)=C3C(=O)c4c(O)c(C(C)(C)C)cc(-c5ccc6c(c5)OCO6)c4C[C@@]3(N)C[C@@]12N [NT] | ** (toxicities less than 25 μg/mL are represented by **) |
| CN(C)[C@@H]1C(O)=C(C(N)=O)C(=O)[C@@]2(C#N)C(O)=C3C(=O)c4c(O)c(I)cc(I)c4[C@H](N)[C@@]3(N)[C@H](O)[C@@]12N [CT] | ** (toxicities less than 25 μg/mL are represented by **) |
| CCOC(=O)CNC(=O)c1cccc(-c2cc(N(C)C)c3c(c2O)C(=O)C2=C(O)[C@]4(C#N)C(=O)C(C(N)=O)=C(O)[C@@H](N(C)C)[C@]4(N)C[C@]2(N)C3)c1 [LM] | ** (toxicities less than 25 μg/mL are represented by **) |
| CNc1ccc(NC(=O)Nc2cc(N(C)C)c3c(c2O)C(=O)C2=C(O)[C@]4(C#N)C(=O)C(C(N)=O)=C(O)[C@@H](N(C)C)[C@]4(N)C[C@]2(N)C3)cc1 [SE] | * (toxicities greater than >25 μg/ml are represented by *) |
| CN(C)c1ccc(NC(=O)NCc2cc(N(C)C)c3c(c2O)C(=O)C2=C(O)[C@]4(C#N)C(=O)C(C(N)=O)=C(O)[C@@H](N(C)C)[C@]4(N)C[C@]2(N)C3)cc1 [ND] | * (toxicities greater than >25 μg/ml are represented by *) |
| CCC(=O)O[C@H]1[C@@]2(N)C(=C(O)[C@]3(C#N)C(=O)C(C(N)=O)=C(O)[C@@H](N(C)C)[C@]13N)C(=O)c1c(O)ccc(I)c1[C@@H]2N [CM] | ** (toxicities less than 25 μg/mL are represented by **) |
| CN(C)[C@@H]1C(O)=C(C(N)=O)C(=O)[C@@]2(C#N)C(O)=C3C(=O)c4c(O)ccc(C=C5CCC5)c4C[C@@]3(N)C[C@@]12N [FS] | ** (toxicities less than 25 μg/mL are represented by **) |
| CCNC(=O)CNC(=O)c1cccc(-c2ccc(O)c3c2C[C@@]2(N)C[C@@]4(N)[C@H](N(C)C)C(O)=C(C(N)=O)C(=O)[C@@]4(C#N)C(O)=C2C3=O)c1 [PD] | * (toxicities greater than >25 μg/ml are represented by *) |
| CC(=O)c1ccc(O)c2c1C[C@@]1(N)C[C@@]3(N)[C@H](N(C)C)C(O)=C(C(N)=O)C(=O)[C@@]3(C#N)C(O)=C1C2=O [GR] | * (toxicities greater than >25 μg/ml are represented by *) |
| CN(C)[C@@H]1C(O)=C(C(N)=O)C(=O)[C@@]2(C#N)C(O)=C3C(=O)c4c(O)c(CNC(=O)CCl)cc(-c5ccccc5)c4C[C@@]3(N)C[C@@]12N [KD] | ** (toxicities less than 25 μg/mL are represented by **) |

| Structure (SMILES) | In Vitro Cytotoxicity |
| --- | --- |
| CN(C)[C@@H]1C(O)=C(C(N)=O)C(=O)[C@@]2(C#N)C(O)=C3C(=O)c4c(O)ccc(-c5ccc(C(C)(C)C)cc5)c4C[C@@]3(N)C[C@@]12N [GK] | ** (toxicities less than 25 μg/mL are represented by **) |
| CN(C)c1cc(CNC(=O)Nc2ccccc2)c(O)c2c1C[C@@]1(N)C[C@@]3(N)[C@H](N(C)C)C(O)=C(C(N)=O)C(=O)[C@@]3(C#N)C(O)=C1C2=O [ME] | * (toxicities greater than >25 μg/ml are represented by *) |
| CN(C)[C@@H]1C(O)=C(C(N)=O)C(=O)[C@@]2(C#N)C(O)=C3C(=O)c4c(O)ccc(-c5ccc(NC(=O)Nc6ccc(OC(F)(F)F)cc6)cc5)c4C[C@@]3(N)C[C@@]12N [PH] | * (toxicities greater than >25 μg/ml are represented by *) |
| CN(C)[C@@H]1C(O)=C(C(N)=O)C(=O)[C@@]2(C#N)C(O)=C3C(=O)c4c(ccc(NC(=O)Nc5ccc(Cl)cc5C(F)(F)F)c4O)[C@H](N)[C@@]3(N)[C@H]([S+](N)[O-])[C@@]12N (stereo partly drawn) [BW] | ** (toxicities less than 25 μg/mL are represented by **) |
| CN(C)[C@@H]1C(O)=C(C(N)=O)C(=O)[C@@]2(C#N)C(O)=C3C(=O)c4c(O)ccc(-c5cccc(C(N)=O)c5)c4C[C@@]3(N)C[C@@]12N [IS] | * (toxicities greater than >25 μg/ml are represented by *) |
| CCCc1cc(CN)c(O)c2c1C[C@@]1(N)C[C@@]3(N)[C@H](N(C)C)C(O)=C(C(N)=O)C(=O)[C@@]3(C#N)C(O)=C1C2=O [JS] | * (toxicities greater than >25 μg/ml are represented by *) |
| CN(C)[C@@H]1C(O)=C(C(N)=O)C(=O)[C@@]2(C#N)C(O)=C3C(=O)c4c(O)ccc(/C=C/C(=O)OC(C)(C)C)c4C[C@@]3(N)C[C@@]12N [JD] | * (toxicities greater than >25 μg/ml are represented by *) |
| CN(C)c1cc(CCc2ccccc2)c(O)c2c1C[C@@]1(N)C[C@@]3(N)[C@H](N(C)C)C(O)=C(C(N)=O)C(=O)[C@@]3(C#N)C(O)=C1C2=O [MN] | ** (toxicities less than 25 μg/mL are represented by **) |
| CN(C)[C@@H]1C(O)=C(C(N)=O)C(=O)[C@@]2(C#N)C(O)=C3C(=O)c4c(O)ccc(-c5ccc(CNCCc6ccc(Cl)cc6)cc5)c4C[C@@]3(N)C[C@@]12N [OF] | ** (toxicities less than 25 μg/mL are represented by **) |
| CCOc1ccc(-c2ccc(O)c3c2C[C@@]2(N)C[C@@]4(N)[C@H](N(C)C)C(O)=C(C(N)=O)C(=O)[C@@]4(C#N)C(O)=C2C3=O)cc1 [FT] | ** (toxicities less than 25 μg/mL are represented by **) |
| CN(C)[C@@H]1C(O)=C(C(N)=O)C(=O)[C@@]2(C#N)C(O)=C3C(=O)c4c(O)ccc(-c5cncc(Br)c5)c4C[C@@]3(N)C[C@@]12N [VF] | ** (toxicities less than 25 μg/mL are represented by **) |
| CCc1ccc(O)c2c1C[C@@]1(N)C[C@@]3(N)[C@H](N(C)C)C(O)=C(C(N)=O)C(=O)[C@@]3(C#N)C(O)=C1C2=O [GE] | ** (toxicities less than 25 μg/mL are represented by **) |
| CN(C)[C@@H]1C(O)=C(C(N)=O)C(=O)[C@@]2(C#N)C(O)=C3C(=O)c4c(O)ccc(C#Cc5ccc([N+](=O)O)cc5)c4C[C@@]3(N)C[C@@]12N [FU] | ** (toxicities less than 25 μg/mL are represented by **) |
| CN(C)[C@@H]1C(O)=C(C(N)=O)C(=O)[C@@]2(C#N)C(O)=C3C(=O)c4c(O)ccc(C(=O)O)c4C[C@@]3(N)C[C@@]12N [JR] | * (toxicities greater than >25 μg/ml are represented by *) |
| CN(C)c1cc(CNc2ccccc2)c(O)c2c1C[C@@]1(N)C[C@@]3(N)[C@H](N(C)C)C(O)=C(C(N)=O)C(=O)[C@@]3(C#N)C(O)=C1C2=O [VD] | ** (toxicities less than 25 μg/mL are represented by **) |
| CN(C)c1ccc(-c2cc(C#CC3=CCCCC3)c(O)c3c2C[C@@]2(N)C[C@@]4(N)[C@H](N(C)C)C(O)=C(C(N)=O)C(=O)[C@@]4(C#N)C(O)=C2C3=O)cc1 [QO] | ** (toxicities less than 25 μg/mL are represented by **) |
| CN(C)[C@@H]1C(O)=C(C(N)=O)C(=O)[C@@]2(C#N)C(O)=C3C(=O)c4c(O)ccc(-c5ccc(CN6CCOCC6)c6ccccc56)c4C[C@@]3(N)C[C@@]12N [ON] | ** (toxicities less than 25 μg/mL are represented by **) |
| COc1ccc(NC(=O)Nc2cc(N(C)C)c3c(c2O)C(=O)C2=C(O)[C@]4(C#N)C(=O)C(C(N)=O)=C(O)[C@@H](N(C)C)[C@]4(N)C[C@]2(N)C3)cc1 [IE] | * (toxicities greater than >25 μg/ml are represented by *) |
| C=CC(O)O[C@H]1[C@@]2(N)C(=C(O)[C@]3(C#N)C(=O)C(C(N)=O)=C(O)[C@@H](N(C)C)[C@]13N)C(=O)c1c(O)cccc1[C@@H]2N (stereo partly drawn) [BO] | ** (toxicities less than 25 μg/mL are represented by **) |
| Cc1ccc(-c2ccc(O)c3c2C[C@@]2(N)C[C@@]4(N)[C@H](N(C)C)C(O)=C(C(N)=O)C(=O)[C@@]4(C#N)C(O)=C2C3=O)nc1 [VC] | ** (toxicities less than 25 μg/mL are represented by **) |
| CN(C)c1cc(C2C=CCC2)c(O)c2c1C[C@@]1(N)C[C@@]3(N)[C@H](N(C)C)C(O)=C(C(N)=O)C(=O)[C@@]3(C#N)C(O)=C1C2=O (stereo partly drawn) [DO] | ** (toxicities less than 25 μg/mL are represented by **) |
